What was measured:
Assay in all cases: relative viability (nuclei count vs DMSO), 5 days (fraction); higher = more cells survive
[1] = compound: CC(O)(CS(=O)(=O)c1ccc(F)cc1)C(=O)Nc1ccc(C#N)c(C(F)(F)F)c1 [Bicalutamide] + C[C@@H](Oc1cc(-c2cnn(C3CCNCC3)c2)cnc1N)c1c(Cl)ccc(F)c1Cl [Crizotinib] (partner 1 µM)
Outline: (§1)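 Lung cancer cell lines were seeded in 1536-well plates and dosed by pin tool the next day, with either a single drug or a fixed anchor-drug dose combined with five library-drug doses (not always all listed) spaced in √10 steps. Five days later, one step fixed the cells and stained their nuclei (final 0.05% Triton X-100, 1% formaldehyde, 1 ug/ml Hoechst), and nuclei were counted on 4× images. Relative viability is the nuclei count in treated wells divided by the count in vehicle wells, and each value is the median of duplicate plates.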

Bicalutamide + Olaparib = compound: CC(O)(CS(=O)(=O)c1ccc(F)cc1)C(=O)Nc1ccc(C#N)c(C(F)(F)F)c1 [Bicalutamide] + O=C(c1cc(Cc2n[nH]c(=O)c3ccccc23)ccc1F)N1CCN(C(=O)C2CC2)CC1 [Olaparib] (partner 8 µM)
Outline: as §1

[2] = compound: C(C(=O)C(=O)O)Br [Bromopyruvate] + Cc1nc(Nc2ncc(C(=O)Nc3c(C)cccc3Cl)s2)cc(N2CCN(CCO)CC2)n1 [Dasatinib] (partner 0.075 µM)
Outline: as §1

[3] = compound: C(C(=O)C(=O)O)Br [Bromopyruvate] + CS(=O)(=O)CCNCc1ccc(-c2ccc3ncnc(Nc4ccc(OCc5cccc(F)c5)c(Cl)c4)c3c2)o1 [Lapatinib] (partner 2 µM)
Outline: as §1

| Cell Line | relative viability ([1]; first compound 0.08 µM) | relative viability ([1]; first compound 0.253 µM) | relative viability ([1]; first compound 0.8 µM) | relative viability ([1]; first compound 2.53 µM) | relative viability (Bicalutamide + Olaparib; first compound 0.08 µM) | relative viability (Bicalutamide + Olaparib; first compound 0.253 µM) | relative viability (Bicalutamide + Olaparib; first compound 0.8 µM) | relative viability (Bicalutamide + Olaparib; first compound 2.53 µM) | relative viability ([2]; first compound 1 µM) | relative viability ([2]; first compound 3.162 µM) | relative viability ([2]; first compound 10 µM) | relative viability ([2]; first compound 100 µM) | relative viability ([3]; first compound 1 µM) | relative viability ([3]; first compound 3.162 µM) | relative viability ([3]; first compound 10 µM) | relative viability ([3]; first compound 31.62 µM) | relative viability ([3]; first compound 100 µM) | relative viability ([2]; first compound 31.62 µM) |
| --- | --- | --- | --- | --- | --- | --- | --- | --- | --- | --- | --- | --- | --- | --- | --- | --- | --- | --- |
| NCI-H1792 | 0.922 | 0.888 | 1.02 | 1.02 | 0.493 | 0.365 | 0.39 | 0.257 | 0.81 | 0.892 | 0.91 | 0.723 | 0.949 | 0.972 | 1.06 | 0.674 | 0.835 | – |
| NCI-H1915 | 0.873 | 0.815 | 0.969 | 0.889 | 0.25 | 0.232 | 0.29 | 0.254 | 0.331 | 0.326 | 0.319 | 0.315 | 0.95 | 0.98 | 0.976 | 0.98 | 0.991 | 0.275 |
| NCI-H1944 | 1.07 | 0.982 | 1.28 | 1.12 | 0.424 | 0.388 | 0.46 | 0.375 | 0.235 | 0.255 | 0.213 | 0.205 | 0.826 | 0.903 | 0.932 | 0.7 | 0.869 | 0.196 |
| NCI-H1975 | 0.97 | 0.915 | 1.08 | 0.781 | 0.81 | 0.772 | 1 | 0.59 | 0.369 | 0.4 | 0.349 | 0.344 | 0.876 | 1.08 | 1.01 | 0.838 | 0.833 | 0.442 |
| NCI-H1993 | – | 0.83 | 0.978 | 0.778 | 1.05 | 0.785 | 1.17 | 1.01 | 0.826 | 0.766 | 0.841 | 0.617 | 0.698 | 0.763 | 0.705 | 0.847 | 0.769 | 0.652 |
| NCI-H2009 | 1.01 | 1.01 | 1.04 | 0.973 | 0.675 | 0.702 | 0.715 | 0.667 | 0.281 | 0.297 | 0.279 | 0.202 | 0.903 | 0.783 | 0.877 | 0.874 | 0.909 | 0.243 |
| NCI-H2023 | 0.691 | 0.601 | 0.679 | 0.462 | 0.534 | 0.493 | 0.495 | 0.394 | 0.398 | 0.566 | 0.661 | 0.562 | 0.803 | 0.922 | 0.743 | 0.877 | 0.793 | 0.573 |
| NCI-H2085 | 0.904 | 0.822 | 0.816 | 0.745 | 0.758 | 0.865 | 0.773 | 0.781 | 0.246 | 0.243 | 0.234 | 0.284 | 0.761 | 0.784 | 0.771 | 0.815 | 0.707 | 0.263 |
| NCI-H2087 | 1 | 0.993 | 0.887 | 0.971 | 0.527 | 0.51 | 0.75 | 0.572 | 0.807 | 1 | 0.914 | 0.824 | 1.06 | 1.02 | 1.09 | 0.91 | 1.05 | 0.745 |
| NCI-H2126 | 1.06 | 0.983 | 1.06 | 0.945 | 0.989 | 0.913 | 1.01 | 0.859 | 0.659 | 0.594 | 0.611 | 0.587 | 0.752 | 0.78 | 0.764 | 0.787 | 0.751 | 0.622 |
| NCI-H2170 | 1.12 | 1.18 | 1.39 | 1.18 | 0.612 | 0.572 | 0.536 | 0.645 | 0.553 | 0.509 | 0.59 | 0.635 | 0.25 | 0.284 | 0.277 | 0.246 | 0.293 | 0.627 |
| NCI-H2228 | 0.443 | 0.52 | 0.754 | 0.463 | 0.748 | 0.536 | 1.16 | 0.524 | 0.464 | 0.532 | 0.52 | 0.633 | 1.45 | 0.99 | 1.2 | 1.12 | 1.1 | 0.455 |
| NCI-H2347 | 0.797 | 0.621 | 0.689 | 0.675 | 0.518 | 0.555 | 0.62 | 0.54 | 0.331 | 0.297 | 0.322 | 0.278 | 0.897 | 1.02 | 1.18 | 0.782 | 1.15 | 0.292 |
| NCI-H2405 | 0.913 | 0.817 | 0.962 | 0.837 | 0.947 | 0.83 | 0.919 | 0.842 | 0.242 | 0.218 | 0.209 | 0.231 | 1.13 | 1.12 | 1.13 | 0.965 | 1.14 | 0.19 |
| NCI-H3122 | 0.281 | 0.26 | 0.277 | 0.281 | 0.536 | 0.657 | 0.712 | 0.617 | 0.936 | 0.871 | 1.22 | 0.882 | 0.982 | 1.05 | 0.961 | 1.01 | 1.01 | 0.765 |
| PC-3 [JPC-3] | 1.02 | 1.07 | 1.06 | 1.02 | 1.22 | 1.09 | 1.16 | 1.24 | 1.06 | 1.03 | 1.06 | 1.1 | 0.474 | 0.44 | 0.441 | 0.468 | 0.467 | 1.02 |
| PC-14 | 0.958 | 0.972 | 0.899 | 0.904 | 0.346 | 0.3 | 0.274 | 0.271 | 0.307 | 0.328 | 0.284 | 0.191 | 0.317 | 0.317 | 0.361 | 0.276 | 0.325 | 0.272 |
| RERF-LC-KJ | 0.874 | 0.849 | 0.872 | 0.855 | 0.979 | 1.04 | 0.962 | 0.768 | 0.882 | 0.797 | 1.04 | 0.73 | 0.874 | 0.892 | 0.984 | 0.868 | 0.829 | 0.878 |
| SK-LU-1 | 0.936 | 0.967 | 1.08 | 0.854 | 0.502 | 0.482 | 0.633 | 0.486 | 0.171 | 0.153 | 0.19 | 0.165 | 1.06 | 0.806 | 0.81 | 0.823 | 0.88 | 0.171 |
| SK-MES-1 | 1.03 | 0.902 | 1.02 | 1.01 | 0.825 | 0.711 | 0.773 | 0.561 | 0.424 | 0.332 | 0.345 | 0.417 | 0.417 | 0.466 | 0.488 | 0.432 | 0.465 | 0.339 |
| SW 1573 | 0.972 | 0.761 | 1.08 | 0.721 | 0.542 | 0.525 | 0.428 | 0.472 | 0.598 | 0.684 | 0.492 | 0.0416 | 1.11 | 1.03 | 1.09 | 1.05 | 0.904 | 0.276 |
| UMC-11 | 0.69 | 0.521 | 0.643 | 0.399 | 0.386 | 0.347 | 0.406 | 0.522 | 0.504 | 0.497 | 0.484 | 0.495 | 1.15 | 0.976 | 1.11 | 0.966 | 1.03 | 0.433 |
